Patent US7135548B2, “Modified α-MSH peptides and derivatives thereof” (Zengen, Inc., priority 2002, dated 2006)
Entries after “also recorded” stand apart in the source; their conditions may differ. Square brackets hold non-standard residues; d marks the D form. Ends that are not written are not given here. dNal = D-naphthylalanine (D-Nal)

Columns and labels:
Candida albicans [1] = experiment: Inhibition of Candida albicans colony formation (viability estimated from colonies formed); assay type: cell-based; settings: for % Inhib. (inhibitory effect on Candida Albicans): clinical isolates, 1×10^6/ml in HBSS, two hours at 37° C. with peptide, colonies counted after 48 hours, peptide concentration for the table not given (range tested 10^−15 to 10^−4 M); for antimicrobial activity toward Candida albicans (result in words): Table 1 / FIG. 1
Experimental: Clinical isolates of C. albicans were also obtained from the collection of the Department of Microbiology, Ospedale Maggiore di Milano. Cultures of C. albicans were maintained on Sabouraud's agar slants and periodically transferred to Sabouraud's agar plates and incubated for 48 hours at 28° C. To prepare stationary growth-phase yeast, a colony may be taken from the agar plate, transferred into 30 ml of Sabouraud-dextrose broth, and incubated for 72 hours at 32° C. Cells were centrifuged at 1000×g for ten minutes, and the pellet may be washed twice with distilled water. Cells were counted and suspended in Hank's balanced salt solution (“HBSS”) to the desired concentration. Viability, determined by exclusion of 0.01% methylene blue, remained greater than 98%.
At 1×10^6/ml in HBSS, these fungi were incubated in the presence or absence of modified α-MSH peptides at concentrations ranging from 10^−15 to 10^−4 M for two hours at 37° C. Cells were then washed in cold distilled water and diluted with HBSS to a concentration of 100 organisms/ml. One-milliliter aliquots were then dispensed on blood agar plates and incubated for 48 hours at 37° C. The organism's viability may be estimated from the number of colonies formed.

Candida albicans [2] = settings: comparison value, see U.S. patent application Ser. No. 09/535,066; cited from earlier work

Substance	% Inhib. (inhibitory effect on Candida Albicans) (Candida albicans [1]) [%]	antimicrobial activity toward Candida albicans (result in words) (Candida albicans [1])	inhibition of C. albicans colonies by naturally occurring α-MSH (Candida albicans [2])
HFRWGKFV [SEQ. ID. NO. 32]	90.0		
His-Phe-Arg-Trp-Gly-Lys-Pro-DVal (HFRWGKP[dV]-OH; N-terminus assumed; SMILES CC(C)[C@@H](NC(=O)[C@@H]1CCCN1C(=O)[C@H](CCCCN)NC(=O)CNC(=O)[C@H](Cc1c[nH]c2ccccc12)NC(=O)[C@H](CCCNC(=N)N)NC(=O)[C@H](Cc1ccccc1)NC(=O)[C@@H](N)Cc1c[nH]cn1)C(=O)O) [SEQ. ID. NO. 17]	82.5		
His-DNal-Arg-Trp-Gly-Lys-Ser-Val (H[dNal]RWGKSV-OH) [SEQ. ID. NO. 31]	73.9	No substantial modification in activity	
His-DNal-Arg-Trp-Gly-Lys-Asp-Val (H[dNal]RWGKDV-OH) [SEQ. ID. NO. 41]	16.8	decreased activity	
HFRWGKGV [SEQ. ID. NO. 28]	41.8		
HFRWGKPA [SEQ. ID. NO. 20]	68.4		
HFRWGAPV [SEQ. ID. NO. 18]	26.2		
HFR[dW]GKPV [SEQ. ID. NO. 23]	81.9		
HFRWGKPL [SEQ. ID. NO. 24]	86.6		
HFRWGKDV [SEQ. ID. NO. 38]	5.9		
HFRWGKEV [SEQ. ID. NO. 42]	11.2		
His-DPhe-Arg-Trp-Gly-Lys-Asp-Val (H[dF]RWGKDV-OH; N-terminus assumed; SMILES CC(C)[C@H](NC(=O)[C@H](CC(=O)O)NC(=O)[C@H](CCCCN)NC(=O)CNC(=O)[C@H](Cc1c[nH]c2ccccc12)NC(=O)[C@H](CCCNC(=N)N)NC(=O)[C@@H](Cc1ccccc1)NC(=O)[C@@H](N)Cc1c[nH]cn1)C(=O)O) [SEQ. ID. NO. 40]	3.7		
His-DNal-Arg-Trp-Gly-Lys-Glu-Val (H[dNal]RWGKEV-OH) [SEQ. ID. NO. 43]	32.3	decreased activity	
HFRWGKSV [SEQ. ID. NO. 30]	32.3	No substantial modification in activity	
His-DNal-Arg-Trp-Gly-Lys-Gly-Val (H[dNal]RWGKGV-OH) [SEQ. ID. NO. 29]	36.2		
SYSMEHFRWGKPV [α-MSH, naturally occurring 13-amino acid peptide, α-melanocyte-stimulating hormone]			less than 80%
His-DNal-Arg-Trp-Gly-Lys-Lys-Val (H[dNal]RWGKKV-OH) [SEQ. ID. NO. 45]	85.4		
His-DPhe-Arg-Trp-Gly-Lys-Pro-Val (H[dF]RWGKPV-OH; N-terminus assumed; SMILES CC(C)[C@H](NC(=O)[C@@H]1CCCN1C(=O)[C@H](CCCCN)NC(=O)CNC(=O)[C@H](Cc1c[nH]c2ccccc12)NC(=O)[C@H](CCCNC(=N)N)NC(=O)[C@@H](Cc1ccccc1)NC(=O)[C@@H](N)Cc1c[nH]cn1)C(=O)O) [SEQ. ID. NO. 21]	79.4		
His-DNal-Arg-Trp-Gly-Lys-Phe-Val (H[dNal]RWGKFV-OH) [SEQ. ID. NO. 36]	99.7	potent antimicrobial activity; also recorded: remarkable anticandidacidal activity	
His-DPhe-Arg-Trp-Gly-Lys-Phe-Val (H[dF]RWGKFV-OH; N-terminus assumed; SMILES CC(C)[C@H](NC(=O)[C@H](Cc1ccccc1)NC(=O)[C@H](CCCCN)NC(=O)CNC(=O)[C@H](Cc1c[nH]c2ccccc12)NC(=O)[C@H](CCCNC(=N)N)NC(=O)[C@@H](Cc1ccccc1)NC(=O)[C@@H](N)Cc1c[nH]cn1)C(=O)O) [SEQ. ID. NO. 34]	89.6		
His-Phe-Arg-Trp-Gly-Lys-DPhe-Val (HFRWGK[dF]V-OH; N-terminus assumed; SMILES CC(C)[C@H](NC(=O)[C@@H](Cc1ccccc1)NC(=O)[C@H](CCCCN)NC(=O)CNC(=O)[C@H](Cc1c[nH]c2ccccc12)NC(=O)[C@H](CCCNC(=N)N)NC(=O)[C@H](Cc1ccccc1)NC(=O)[C@@H](N)Cc1c[nH]cn1)C(=O)O) [SEQ. ID. NO. 33]	97.5		
His-DNal-Arg-Trp-Gly-Lys-Ala-Val (H[dNal]RWGKAV-OH) [SEQ. ID. NO. 26]	28.0		
His-DNal-Arg-Trp-Gly-Lys-DAla-Val (H[dNal]RWGK[dA]V-OH) [SEQ. ID. NO. 27]	69.2		
H[dF]RWGK[dF]V [SEQ. ID. NO. 35]	82.0		
HFRWGKKV [SEQ. ID. NO. 44]	41.0		
His-DNal-Arg-Trp-Gly-Lys-DPhe-Val (H[dNal]RWGK[dF]V-OH) [SEQ. ID. NO. 37]	57.6	potent antimicrobial activity	
His-Phe-Arg-Trp-Gly-Lys-DAla-Val (HFRWGK[dA]V-OH; N-terminus assumed; SMILES CC(C)[C@H](NC(=O)[C@@H](C)NC(=O)[C@H](CCCCN)NC(=O)CNC(=O)[C@H](Cc1c[nH]c2ccccc12)NC(=O)[C@H](CCCNC(=N)N)NC(=O)[C@H](Cc1ccccc1)NC(=O)[C@@H](N)Cc1c[nH]cn1)C(=O)O) [SEQ. ID. NO. 25]	43.7		
His-DNal-Arg-Trp-Gly-Lys-Pro-Val (H[dNal]RWGKPV-OH) [SEQ. ID. NO. 22]	95.3	increased activity	
His-Phe-Arg-Trp-Gly-Lys-DAsp-Val (HFRWGK[dD]V-OH; N-terminus assumed; SMILES CC(C)[C@H](NC(=O)[C@@H](CC(=O)O)NC(=O)[C@H](CCCCN)NC(=O)CNC(=O)[C@H](Cc1c[nH]c2ccccc12)NC(=O)[C@H](CCCNC(=N)N)NC(=O)[C@H](Cc1ccccc1)NC(=O)[C@@H](N)Cc1c[nH]cn1)C(=O)O) [SEQ. ID. NO. 39]	15.7		
HFRWGKAV [SEQ. ID. NO. 19]	12.8		
